Data as given in the supplement of paper PMC8882468.

Key:
Experiment in all cases: CTG-3D luminescence at 96 h relative to day-0 seeding control (ratio to day 0); higher = more growth / less cytotoxicity; PDxO 3D drug screen, 96 h, CTG-3D normalised to day-0 seeding control.
HCI-012 = test system: HCI-012 (organoid from a breast cancer xenograft)
HCI-003.E2 = test system: HCI-003.E2 (organoid from an ER-positive breast cancer xenograft)
HCI-001 = test system: HCI-001 (organoid from a triple-negative breast cancer xenograft)
HCI-024 = test system: HCI-024 (organoid from a breast cancer xenograft)
HCI-027 = test system: HCI-027 (organoid from a triple-negative breast cancer xenograft)

C=CC(=O)N1CCC[C@@H](n2nc(-c3ccc(Oc4ccccc4)cc3)c3c(N)ncnc32)C1 [ibrutinib]
CTG-3D luminescence at 96 h
Conditions | 12.5 pM | 0.00025 µM | 0.005 µM | 0.1 µM | 1 µM | 10 µM | 100 µM | 625 fM
HCI-001, days in culture: 240 | 1.62 | 0.923 | 0.958 | 1.01 | 0.901 | 0.951 | -0.0017 | 1.14
HCI-001, days in culture: 260 | 2.29 | 1.15 | 2.12 | 0.971 | 1.31 | 1.12 | -0.00311 | 1.46
HCI-001, days in culture: 269 | 1.59 | 1.71 | 1.51 | 1.41 | 1.06 | 1.38 | -0.0108 | 1.48
HCI-001, days in culture: 327 | 1.45 | 1.07 | 1.49 | 1.3 | 1.25 | 0.932 | -0.00545 | 1.92
HCI-001, days in culture: 346 | 1.37 | 1.36 | 1.14 | 0.896 | 1.23 | 1.15 | -0.00544 | 1.3
HCI-001, days in culture: 364 | 1.37 | 1.18 | 1.57 | 0.992 | 1.12 | 1.02 | -0.00371 | 1.6
HCI-012, days in culture: 143 | 1.95 | 2 | 1.95 | 2.2 | 1.64 | 1.12 | -0.0164 | 1.75
HCI-012, days in culture: 162 | 2.49 | 1.94 | 2.13 | 2.98 | 1.72 | 1.53 | -0.0115 | 2.67
HCI-012, days in culture: 201 | 2.76 | 1.92 | 1.72 | 1.69 | 2.52 | 0.842 | -0.018 | 1.54
HCI-024, days in culture: 105 | 1.56 | 1.54 | 1.35 | 1.46 | 1.32 | 1.61 | -0.00218 | 1.84
HCI-024, days in culture: 122 | 2.18 | 2.8 | 2.14 | 1.49 | 1.64 | 1.91 | -0.00165 | 3.5
HCI-024, days in culture: 163 | 1.47 | 2.09 | 2.1 | 2.44 | 1.92 | 1.75 | 0.00762 | 2.03
HCI-027, days in culture: 176 | 1.63 | 1.35 | 2.52 | 1.59 | 1.09 | 0.54 | 0.00595 | 1.73
HCI-027, days in culture: 194 | 1.68 | 1.52 | 1.52 | 1.6 | 1.98 | 1.69 | 0.00765 | 1.76
HCI-027, days in culture: 201 | 2.12 | 1.48 | 1.94 | 1.93 | 1.49 | 1.41 | 0.00768 | 2.11

HCI-003.E2
Conditions | CTG-3D luminescence at 96 h
12.5 pM | 2.16
0.00025 µM | 2.46
0.005 µM | 2.1
0.1 µM | 1.93
1 µM | 1.86
10 µM | 0.903
100 µM | -0.00322
625 fM | 2.1

CC(=O)O[C@H]1C(=O)[C@@]2(C)[C@H]([C@H](OC(=O)c3ccccc3)[C@]3(O)C[C@H](OC(=O)[C@H](O)[C@@H](NC(=O)c4ccccc4)c4ccccc4)C(C)=C1C3(C)C)[C@]1(OC(C)=O)CO[C@@H]1C[C@@H]2O [paclitaxel]
CTG-3D luminescence at 96 h
Conditions | 12.5 pM | 0.00025 µM | 0.005 µM | 0.1 µM | 1 µM | 10 µM | 100 µM | 625 fM
HCI-001, days in culture: 240 | 1.49 | 1.15 | 0.619 | 0.709 | 0.952 | 0.995 | 1.03 | 1.1
HCI-001, days in culture: 260 | 2.45 | 1.13 | 1.23 | 1.27 | 1.14 | 1.08 | 0.703 | 1.55
HCI-001, days in culture: 269 | 1.48 | 1.52 | 0.95 | 0.728 | 0.749 | 0.987 | 0.92 | 1.27
HCI-001, days in culture: 327 | 1.26 | 0.725 | 1.04 | 0.686 | 1.06 | 0.714 | 0.685 | 1.53
HCI-001, days in culture: 346 | 1.29 | 1.24 | 1.16 | 0.568 | 0.791 | 0.655 | 0.947 | 1.18
HCI-001, days in culture: 364 | 1.37 | 1.15 | 1.31 | 0.657 | 0.699 | 0.681 | 0.715 | 1.49
HCI-012, days in culture: 143 | 1.61 | 1.85 | 0.96 | 0.518 | 0.54 | 0.829 | 0.769 | 1.71
HCI-012, days in culture: 162 | 2.5 | 2.34 | 1.11 | 0.633 | 0.571 | 1.14 | 1.16 | 2.67
HCI-012, days in culture: 201 | 1.12 | 0.271 | 0.477 | 0.241 | 0.609 | 0.237 | 1.01 | 0.564
HCI-024, days in culture: 105 | 1.8 | 1.38 | 1.01 | 1.4 | 1.57 | 1.68 | 1.11 | 1.85
HCI-024, days in culture: 122 | 2.07 | 2.67 | 1.5 | 1.34 | 1.62 | 2.3 | 1.13 | 2.79
HCI-024, days in culture: 163 | 1.62 | 1.72 | 1.29 | 1.68 | 1.65 | 2.37 | 1.26 | 1.56
HCI-027, days in culture: 176 | 2.38 | 1.31 | 0.504 | 0.265 | 0.283 | 0.392 | 0.34 | 2.59
HCI-027, days in culture: 194 | 1.95 | 1.6 | 0.751 | 0.185 | 0.242 | 0.511 | 0.427 | 1.65
HCI-027, days in culture: 201 | 2.25 | 2.16 | 0.808 | 0.215 | 0.284 | 0.563 | 0.342 | 2.03

HCI-003.E2
Conditions | CTG-3D luminescence at 96 h
12.5 pM | 0.723
0.00025 µM | 0.764
0.005 µM | 0.601
0.1 µM | 0.625
1 µM | 0.634
10 µM | 0.787
100 µM | 0.992
625 fM | 0.813
